The text below walks through data of ChEMBL document CHEMBL6074628, “Rational design, synthesis and pharmacological characterization of novel aminopeptidase A inhibitors” (Bioorg Med Chem Lett, 2024).

Data set [1] in a line: Inhibition of rabbit kidney aminopeptidase A using GluNA as substrate incubated for 1 hrs by absorbance based assay.
Data set [2] has as its target T1, Glutamyl aminopeptidase (Mus musculus, UniProt P16406).
T1 sequence (P16406 whole entry): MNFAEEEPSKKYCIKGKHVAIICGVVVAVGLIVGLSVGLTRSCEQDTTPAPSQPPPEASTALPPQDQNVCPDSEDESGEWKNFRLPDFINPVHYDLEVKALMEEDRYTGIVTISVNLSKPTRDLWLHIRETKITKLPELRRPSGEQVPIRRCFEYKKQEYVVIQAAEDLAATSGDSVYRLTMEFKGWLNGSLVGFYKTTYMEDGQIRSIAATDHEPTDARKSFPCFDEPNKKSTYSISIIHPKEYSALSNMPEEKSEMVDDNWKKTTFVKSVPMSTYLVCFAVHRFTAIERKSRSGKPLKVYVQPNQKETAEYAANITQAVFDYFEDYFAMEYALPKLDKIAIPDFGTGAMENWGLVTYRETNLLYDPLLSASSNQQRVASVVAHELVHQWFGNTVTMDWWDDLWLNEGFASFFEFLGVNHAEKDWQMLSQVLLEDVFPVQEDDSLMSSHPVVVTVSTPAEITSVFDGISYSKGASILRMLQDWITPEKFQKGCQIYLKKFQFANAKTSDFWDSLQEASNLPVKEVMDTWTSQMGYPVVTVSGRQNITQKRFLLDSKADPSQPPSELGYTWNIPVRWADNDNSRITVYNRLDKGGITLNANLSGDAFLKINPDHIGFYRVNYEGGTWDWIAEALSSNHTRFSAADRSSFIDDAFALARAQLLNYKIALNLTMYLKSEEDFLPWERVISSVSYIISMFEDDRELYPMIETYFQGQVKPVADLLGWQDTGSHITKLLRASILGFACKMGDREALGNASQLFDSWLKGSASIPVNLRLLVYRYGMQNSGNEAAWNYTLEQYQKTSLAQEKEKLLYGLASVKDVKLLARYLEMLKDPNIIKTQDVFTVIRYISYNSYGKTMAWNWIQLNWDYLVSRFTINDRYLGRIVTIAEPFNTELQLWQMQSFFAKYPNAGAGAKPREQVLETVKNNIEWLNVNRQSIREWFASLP
Description: Inhibition of recombinant mouse aminopeptidase A activity.

Data set [3] has as its target Aminopeptidase N (Homo sapiens, UniProt P15144). As to the kind of experiment: Inhibition of APN (unknown origin).
The nature of data set [4]: Apparent permeability in human Caco-2 cells.
Data set [5] is described as follows: Solubility of compound in phosphate buffer at pH 7.4.
In data set [6] the target is T2, Cytochrome P450 1A2 (Homo sapiens, UniProt P05177).
T2 sequence (P05177 whole entry): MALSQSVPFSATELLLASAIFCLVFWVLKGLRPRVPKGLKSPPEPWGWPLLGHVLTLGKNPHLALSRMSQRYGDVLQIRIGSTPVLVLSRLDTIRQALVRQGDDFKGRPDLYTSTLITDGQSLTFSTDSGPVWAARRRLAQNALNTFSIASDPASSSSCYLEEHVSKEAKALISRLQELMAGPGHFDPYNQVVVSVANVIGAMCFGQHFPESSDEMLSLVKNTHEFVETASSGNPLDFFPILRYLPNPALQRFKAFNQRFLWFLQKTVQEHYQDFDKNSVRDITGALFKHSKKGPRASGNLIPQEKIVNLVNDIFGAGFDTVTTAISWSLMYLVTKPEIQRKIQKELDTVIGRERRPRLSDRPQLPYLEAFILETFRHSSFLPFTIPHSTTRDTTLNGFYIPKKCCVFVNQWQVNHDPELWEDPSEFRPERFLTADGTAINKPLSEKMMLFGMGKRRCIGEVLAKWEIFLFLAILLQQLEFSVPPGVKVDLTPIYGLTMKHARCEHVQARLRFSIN
As to the kind of experiment: Inhibition of CYP1A2 (unknown origin).

For data set [7], the target named is T3, Cytochrome P450 2B6 (Homo sapiens, UniProt P20813).
T3 sequence (P20813 whole entry): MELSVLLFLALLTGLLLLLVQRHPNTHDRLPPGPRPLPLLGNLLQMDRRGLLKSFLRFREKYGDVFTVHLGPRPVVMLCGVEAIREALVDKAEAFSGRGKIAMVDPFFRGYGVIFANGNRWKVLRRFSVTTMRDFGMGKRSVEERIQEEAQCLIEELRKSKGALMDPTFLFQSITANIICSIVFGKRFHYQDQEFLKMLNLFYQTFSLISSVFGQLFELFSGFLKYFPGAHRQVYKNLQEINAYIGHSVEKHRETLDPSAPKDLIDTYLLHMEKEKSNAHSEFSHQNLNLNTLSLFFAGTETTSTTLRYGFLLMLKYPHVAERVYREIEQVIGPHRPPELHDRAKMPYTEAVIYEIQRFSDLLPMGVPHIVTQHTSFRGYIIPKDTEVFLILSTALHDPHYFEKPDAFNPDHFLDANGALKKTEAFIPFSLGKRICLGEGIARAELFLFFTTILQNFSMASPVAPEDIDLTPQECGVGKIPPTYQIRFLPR
As to the kind of experiment: Inhibition of CYP2B6 (unknown origin).

The target in data set [8] is Cytochrome P450 2C9 (Homo sapiens, UniProt P11712). As to the kind of experiment: Inhibition of CYP2C9 (unknown origin).
Sequence of Cytochrome P450 2C9 (P11712 whole entry): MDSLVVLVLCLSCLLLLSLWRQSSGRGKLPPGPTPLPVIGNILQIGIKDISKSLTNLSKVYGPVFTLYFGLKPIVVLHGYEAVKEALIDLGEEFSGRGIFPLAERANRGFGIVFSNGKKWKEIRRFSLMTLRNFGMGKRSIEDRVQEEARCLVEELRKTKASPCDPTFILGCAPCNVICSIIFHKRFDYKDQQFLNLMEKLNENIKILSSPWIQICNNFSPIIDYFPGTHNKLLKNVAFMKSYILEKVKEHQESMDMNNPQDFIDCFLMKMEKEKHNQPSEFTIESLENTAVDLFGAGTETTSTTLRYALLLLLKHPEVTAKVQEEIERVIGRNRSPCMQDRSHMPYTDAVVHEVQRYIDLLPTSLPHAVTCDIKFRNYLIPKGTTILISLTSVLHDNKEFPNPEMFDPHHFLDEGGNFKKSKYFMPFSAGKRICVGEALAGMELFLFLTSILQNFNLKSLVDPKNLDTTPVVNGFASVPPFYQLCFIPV
Data set [9] deals with Cytochrome P450 2C19 (Homo sapiens, UniProt P33261). Description: Inhibition of CYP2C19 (unknown origin).
Sequence of Cytochrome P450 2C19 (P33261 whole entry): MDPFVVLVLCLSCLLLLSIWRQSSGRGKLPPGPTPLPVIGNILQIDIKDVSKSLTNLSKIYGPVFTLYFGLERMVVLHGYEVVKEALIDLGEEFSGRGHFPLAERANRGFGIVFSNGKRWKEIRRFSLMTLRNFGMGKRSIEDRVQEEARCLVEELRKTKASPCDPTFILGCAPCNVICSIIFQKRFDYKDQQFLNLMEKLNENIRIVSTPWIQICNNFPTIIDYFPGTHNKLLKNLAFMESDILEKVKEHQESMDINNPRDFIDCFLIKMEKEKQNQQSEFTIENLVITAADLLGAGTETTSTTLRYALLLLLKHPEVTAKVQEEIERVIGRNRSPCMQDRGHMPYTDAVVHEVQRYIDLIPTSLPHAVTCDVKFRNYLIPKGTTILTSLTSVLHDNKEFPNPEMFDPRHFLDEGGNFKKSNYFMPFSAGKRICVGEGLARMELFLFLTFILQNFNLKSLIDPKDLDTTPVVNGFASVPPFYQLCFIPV
The target of data set [10] is Cytochrome P450 2D6 (Homo sapiens, UniProt P10635). Description: Inhibition of CYP2D6 (unknown origin).
Sequence of Cytochrome P450 2D6 (P10635 whole entry): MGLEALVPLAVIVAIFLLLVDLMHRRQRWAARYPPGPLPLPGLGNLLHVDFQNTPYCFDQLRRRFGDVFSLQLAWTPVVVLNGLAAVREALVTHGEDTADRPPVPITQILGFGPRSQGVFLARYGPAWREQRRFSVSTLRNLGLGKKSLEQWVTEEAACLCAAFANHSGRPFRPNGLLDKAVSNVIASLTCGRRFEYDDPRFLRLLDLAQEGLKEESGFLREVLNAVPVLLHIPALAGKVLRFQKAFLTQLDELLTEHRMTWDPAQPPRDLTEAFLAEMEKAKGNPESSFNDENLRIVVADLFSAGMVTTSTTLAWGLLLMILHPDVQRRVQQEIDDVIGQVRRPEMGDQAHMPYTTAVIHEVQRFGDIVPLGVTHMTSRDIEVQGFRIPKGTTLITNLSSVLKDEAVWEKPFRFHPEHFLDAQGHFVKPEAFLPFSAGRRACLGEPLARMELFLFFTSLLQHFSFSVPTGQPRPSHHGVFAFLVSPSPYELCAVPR
The target in data set [11] is Cytochrome P450 3A4 (Homo sapiens, UniProt P08684). As to the kind of experiment: Inhibition of CYP3A4 (unknown origin).
Sequence of Cytochrome P450 3A4 (P08684 whole entry): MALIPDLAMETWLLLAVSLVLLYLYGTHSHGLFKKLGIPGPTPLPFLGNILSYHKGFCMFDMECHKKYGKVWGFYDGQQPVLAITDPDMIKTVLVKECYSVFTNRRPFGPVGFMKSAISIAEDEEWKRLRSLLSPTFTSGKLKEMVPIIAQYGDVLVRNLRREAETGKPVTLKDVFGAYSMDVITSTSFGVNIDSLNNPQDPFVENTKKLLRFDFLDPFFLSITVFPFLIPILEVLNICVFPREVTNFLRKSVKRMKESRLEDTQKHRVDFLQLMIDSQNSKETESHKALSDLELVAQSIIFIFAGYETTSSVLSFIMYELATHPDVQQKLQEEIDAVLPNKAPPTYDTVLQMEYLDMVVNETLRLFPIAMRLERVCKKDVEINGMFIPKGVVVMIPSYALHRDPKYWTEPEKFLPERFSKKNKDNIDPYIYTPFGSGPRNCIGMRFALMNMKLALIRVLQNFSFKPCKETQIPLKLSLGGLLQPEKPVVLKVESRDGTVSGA
Data set [12] is described as follows: Stability in human hepatocyte assessed as parent compound remaining measured after 1 hrs. The note with it: hepatocytes.
A short description of data set [13]: Stability in rat hepatocyte assessed as parent compound remaining measured after 1 hrs. The note with it: hepatocytes.
Data set [14] can be described thus: Half-life in Sprague-Dawley rat at 2 mg/kg, iv. The note with it: in vivo.
Data set [15] can be described thus: Hepatic extraction ratio in Sprague-Dawley rat at 2 mg/kg, iv. To be noted: in vivo.
Data set [16] is described as follows: Drug concentration in Sprague-Dawley rat cerebrospinal fluid at 2 mg/kg, iv measured after 5 mins.
Data set [17] is described as follows: Drug concentration in Sprague-Dawley rat cerebrospinal fluid at 2 mg/kg, iv measured after 60 mins.
The nature of data set [18]: Drug concentration in Sprague-Dawley rat brain at 2 mg/kg, iv measured after 5 mins.
Data set [19] can be described thus: Drug concentration in Sprague-Dawley rat brain at 2 mg/kg, iv measured after 60 mins.
Data set [20] is described as follows: in vivo. The note with it: mouse, iv, 2 mg/kg.
Description: AUC (0 to t) in mouse at 2 mg/kg, iv
A short description of data set [21]: in vivo. The note with it: mouse, po, 20 mg/kg.
Description: AUC (0 to t) in mouse at 20 mg/kg, po
Data set [22] in a line: in vivo. To be noted: mouse.
Data set [23] is described as follows: in vivo. The note with it: Sprague-Dawley, rat, iv, 2 mg/kg.
Description: Cmax in Sprague-Dawley rat at 2 mg/kg, iv
Data set [24] in a line: in vivo. To be noted: Sprague-Dawley, rat, iv, 2 mg/kg. This is another data set of the same source.
Description: Renal clearance in Sprague-Dawley rat at 2 mg/kg, iv
Data set [25] is described as follows: Inhibition of APA (unknown origin).

Converted amounts (≈) assume the structure as drawn.

Sequence of Aminopeptidase N (P15144 whole entry): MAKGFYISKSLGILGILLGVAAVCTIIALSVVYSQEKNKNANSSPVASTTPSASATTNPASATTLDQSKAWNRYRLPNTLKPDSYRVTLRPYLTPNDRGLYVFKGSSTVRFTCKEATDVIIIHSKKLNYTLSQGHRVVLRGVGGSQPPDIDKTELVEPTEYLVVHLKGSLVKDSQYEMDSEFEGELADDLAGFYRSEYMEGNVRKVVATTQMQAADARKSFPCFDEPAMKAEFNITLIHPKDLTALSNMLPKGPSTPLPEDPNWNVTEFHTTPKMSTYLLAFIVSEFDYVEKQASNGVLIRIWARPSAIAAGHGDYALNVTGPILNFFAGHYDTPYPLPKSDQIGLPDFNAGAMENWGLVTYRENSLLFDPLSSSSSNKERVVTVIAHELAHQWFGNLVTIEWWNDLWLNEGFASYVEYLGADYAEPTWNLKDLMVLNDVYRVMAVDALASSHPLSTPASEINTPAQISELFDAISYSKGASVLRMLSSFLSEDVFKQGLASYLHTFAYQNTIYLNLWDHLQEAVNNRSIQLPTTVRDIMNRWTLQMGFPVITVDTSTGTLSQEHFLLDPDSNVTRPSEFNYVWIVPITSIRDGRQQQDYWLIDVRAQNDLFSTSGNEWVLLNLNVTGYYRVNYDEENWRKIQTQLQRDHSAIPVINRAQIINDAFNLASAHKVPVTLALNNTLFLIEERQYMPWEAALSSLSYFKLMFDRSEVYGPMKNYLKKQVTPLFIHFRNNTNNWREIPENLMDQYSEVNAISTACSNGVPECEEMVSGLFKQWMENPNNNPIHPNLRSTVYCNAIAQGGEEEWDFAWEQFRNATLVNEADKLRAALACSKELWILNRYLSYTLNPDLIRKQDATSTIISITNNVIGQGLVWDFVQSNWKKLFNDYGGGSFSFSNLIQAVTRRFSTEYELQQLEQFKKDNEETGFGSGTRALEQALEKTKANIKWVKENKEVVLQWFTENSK

The molecule `N[C@H](CS)CCC(=O)O` yielded a Ki in data set [1] of 140 nM.

On to `COc1cccc(CCP(=O)(O)C(N)CCC(=O)O)c1` (centres undefined), for which, in data set [2], the IC50 was found to be 28 nM. The same measure, in the same setting: next, `NC(CCC(=O)O)P(=O)(O)CCc1ccccc1OC1CCCC1` (centres undefined): 9 nM. Consider `NC(CCC(=O)O)P(=O)(O)CCc1ccccc1Cl` (centres undefined), for which, in data set [2], the IC50 turned out to be 21 nM. The same measure, in the same setting: the same measure for `N[C@H](CCC(=O)O)P(=O)(O)CCc1ccccc1`: 660 nM; for `NC(CCC(=O)O)P(=O)(O)CCc1ccccc1-c1ccccc1` (centres undefined): 42 nM. On to `COc1c(Cl)cccc1CCP(=O)(O)C(N)CCC(=O)O` (centres undefined), for which the IC50 in [2] came to 54 nM. `NC(CCC(=O)O)P(=O)(O)CCc1cccc2ccccc12` (centres undefined): the IC50 in data set [2] was determined as 7 nM.

Regarding `COc1ccccc1CCP(=O)(O)[C@@H](N)CCC(=O)O`, the IC50 in data set [3] was over 20000 nM; in data set [2], 4 nM; in [6] it was over 25000 nM; in data set [7], over 25000 nM; in data set [8], over 25000 nM; in data set [9], over 25000 nM. In addition, the IC50 in [10] and in data set [11] was over 25000 nM throughout. The Papp in data set [4] was 0.5 ×10⁻⁶ cm/s. In data set [5], this molecule showed a solubility of 165 µM (≈ 49.7 µg/mL). The amount remaining at 1 h in [12] came out at 99%; in data set [13], 93%. The molecule further came in with a half-life in data set [14] of about 30 min. The hepatic extraction ratio in data set [15] is about 0.45. Besides, the concentration at 5 min was determined as 281 ng/mL in data set [16] and 50.2 ng/g in [18]. Besides, the values for the concentration at 1 h in [17] and in data set [19] were 115 ng/mL and 15.6 ng/g, respectively. In addition, the values for the AUC(0-t) in data set [20] and in data set [21] were 919 ng·h/mL and 37.6 ng·h/mL, respectively. In addition, the bioavailability in data set [22] is 4.1%. The molecule further had a Cmax in data set [23] of 4920 ng/mL. The CL renal in data set [24] was 0.6 mL/min. Consider `COc1ccc(CCP(=O)(O)C(N)CCC(=O)O)cc1` (centres undefined), for which the half-inhibitory concentration (IC50) in data set [2] was determined as 24 nM.

Regarding `NC(CCC(=O)O)P(=O)(O)CCc1ccccc1OC1CCCCC1` (centres undefined), in data set [2], the IC50 was found to be 1 nM.

Turning to `NC(CCC(=O)O)P(=O)(O)CCc1ccc2ccccc2c1` (centres undefined), the concentration for half-maximal inhibition (IC50) in data set [2] is 21 nM. Still for that read-out and setting: next, `Cn1cc(CCP(=O)(O)C(N)CCC(=O)O)c2ccccc21` (centres undefined): 30 nM; `NC(CCC(=O)O)P(=O)(O)CCC1CCCCC1` (centres undefined): 41 nM. Same read-out and setting: next, `COc1ccccc1CCP(=O)(O)C(N)CCC(=O)O` (centres undefined): 9 nM; `NC(CCC(=O)O)P(=O)(O)CCn1ncc2ccccc21` (centres undefined): 420 nM; `N[C@@H](CCC(=O)O)P(=O)(O)CCc1ccccc1`: 10 nM.

Take `NC(CCC(=O)O)P(=O)(O)CCc1cccc(Cl)c1` (centres undefined): in [2], the IC50 is 61 nM. Still for that read-out and setting: the same measure for `NC(CCC(=O)O)P(=O)(O)CCc1ccccc1Oc1ccccc1` (centres undefined): 10 nM; for `Cc1ccc(CCP(=O)(O)C(N)CCC(=O)O)cc1` (centres undefined): 23 nM. Consider `N[C@@H](CCS(=O)(=O)O)[C@@H](S)CCc1ccccc1`, for which the Ki was 30 nM in [25] and over 10000 nM in data set [3]. On to `Cc1ccccc1CCP(=O)(O)C(N)CCC(=O)O` (centres undefined), for which the IC50 in [2] is 18 nM. Regarding `NC(CCC(=O)O)P(=O)(O)CCc1cccc(Cl)c1Cl` (centres undefined), the IC50 in data set [2] turned out to be 26 nM. Still for that read-out and setting: next, `Cc1cccc(CCP(=O)(O)C(N)CCC(=O)O)c1` (centres undefined): 27 nM; `NC(CCC(=O)O)P(=O)(O)CCc1ccccc1OC(F)(F)F` (centres undefined): 26 nM. Same read-out and setting: the same measure for `NC(CCCC(=O)O)P(=O)(O)CCc1ccccc1` (racemic): 930 nM; for `NC(CCP(=O)(O)O)P(=O)(O)CCc1ccccc1` (racemic): 5400 nM. Regarding `NC(CCC(=O)O)P(=O)(O)CCc1ccccc1` (racemic), in [2], the IC50 turned out to be 29 nM. In the case of `NC(CCC(=O)O)P(=O)(O)CCCc1ccccc1` (racemic), in data set [2], the IC50 amounted to 54 nM. As for `NC(CCS(=O)(=O)O)P(=O)(O)CCc1ccccc1` (racemic), in [2], the IC50 stood at 310 nM. Same read-out and setting: next, `NC(CCC(=O)O)P(=O)(O)Cc1ccccc1` (racemic): 39 nM.

What is called Ki is the equilibrium dissociation constant of an inhibitor or competing ligand from its target. High values mean a looser hold on the target, low ones a stronger hold on the target. Broadly, the IC50 is the point on the concentration scale where inhibition reaches its midpoint. By Papp is commonly meant the rate of passage across a membrane or cell layer, normalised by area and donor concentration. For orientation: solubility means the dissolved amount per volume that the medium holds. Low values mean little dissolved substance, high ones much dissolved substance. As usually defined, the share remaining is the share of the starting amount still present when the sample was taken. The half-life is the time in which the quantity being followed falls by half. Lower therefore signals fast loss. A word on the AUC(0-t): it is the area under the concentration-time curve up to a stated or last time point. Usually bioavailability stands for the share of a dose that reaches the circulation, judged against a reference dose that is usually intravenous. A higher bioavailability goes with good availability. As usually defined, the Cmax is the maximum level reached in the sampled fluid or tissue.
